Assay [1] concerns cGnRH-II expression. The assay can be described thus: cGnRH-II transcript levels in seabream larvae after GABA immersion, quantitative RT-PCR. The format is in vivo, gilthead seabream (Sparus aurata). The settings on record: 2-week-old seabream larvae; immersion in GABA 10^−7 to 10^−3 M for 18 hours; sampled 24 hours after treatment. On the procedure:
(§1) FIGS. 2A, B and C show the effect of GABA treatment on GnRH gene expression during development. Larvae were sampled 24 hours after overnight treatment at 3 days pf ( ? ), 1 week pf ( ? ) or 2 weeks pf ( ? ) and levels of GnRH transcript were measured by quantitative RT-PCR Values on the Y axis are expressed as copy number/20 ng total RNA. Values on the X axis range from 0 to 1 mM GABA. 100 ng total RNA was isolated from tissues using a modified acid-phenol extraction method (TRI REAGENT, MRC, Inc., Cincinnati, Ohio) and reverse transcribed into cDNA using random hexamers and MMLV reverse transcriptase. PCR was performed in 96-well plates on diluted cDNA templates using SYBR® Green PCR Core Reagent (PE Applied Biosystems, Foster City, Calif.) and the relevant GnRH primers. […] For each reaction, the Prism® 7700 generated an amplification plot of fluorescence signal versus cycle number, and CT (the fractional cycle number at which fluorescence passes a baseline threshold value) was determined (Fink et al., 1998). […] Quantitation of the amount of target in each sample was accomplished by comparing CT values of unknowns to standards to determine initial copy number. […]
(§2) Seabream. […] At 24 hours post-treatment, transcript levels for each of the 3 GnRHs in seabream were determined using real-time, fluorescence-based quantitative RT-PCR assays. […]

Assay [2] has as its system sbGnRH transcript levels. As to the kind of experiment: sbGnRH transcript levels in seabream larvae after GABA immersion, quantitative RT-PCR. The format is in vivo, gilthead seabream (Sparus aurata). Conditions: seabream larvae 3 days, 1 week, 2 weeks pf; immersion in GABA 10^−7 to 10^−3 M for 18 hours. As for the experimental part:
as §1, §2

The test system of assay [3] is zebrafish gonads. The assay can be described thus: Gonadal development in zebrafish, histological analysis of the gonads at 9 weeks. Type of assay: in vivo, zebrafish (Danio rerio). Conditions: histology after 9 weeks of growth. As for the experimental part:
FIGS. 4A. B and C show the effect of GABA-ergic compounds on gonadal development in zebrafish. Hematoxylineosin staining of gonadal tissues of 9-week old zebrafish exposed at 7–10 days pf to A) no treatment, B) 1 mM GABA and C) 100 μM Muscimol. Note greater degree of organization and more advanced gamete development in A), compared to B) and C). s: somatic cells; o: oogonia; v: oocytes in early stages of vitellogenesis; v*: vitellogenic oocytes with abnormal follicle development. A), C) at 200×; B) 400×.
Zebrafish. Zebrafish larvae 5–8 days post-fertilization (dpf) and 7–10 dpf were immersed in GABA (1 mM) or Muscimol (100 micromolar). Muscimol is a potent GABA agonist that acts specifically on GABAA receptor subtypes. Similar to the post-treatment assays conducted on seabream larvae, zebrafish tissue samples (n=12) were collected at 7, 9, 10, and 12 days pf and also after 9 weeks of growth for detection/analysis of GnRH neuron development and histological analysis of the gonads. […] Confirmation is made to determine the effectiveness of the treatment prior to sexual maturation (or lack thereof).
Zebrafish larvae were immersed in GABA (1 mM) or Muscimol (100 micromolar) at 5–8 days pf and 7–10 days pf. (Muscimol is a potent GABA agonist that acts specifically on GABAA receptor subtypes). Samples (n=12) were collected at 7, 9, 10, and 12 day pf for subsequent detection of GnRH neurons. […]

Assay [4] concerns forebrain (TN) GnRH neurons. As to the kind of experiment: Developmental migration of GnRH neurons in zebrafish larvae, whole-mount ISH. The format is in vivo, zebrafish (Danio rerio). Conditions: sampled at 7, 9, 10, 12 days pf. The source says: Digoxigenin (DIG)-labeled complimentary RNA (cRNA) probe was synthesized from plasmid DNA, containing the seabream TN GnRH cDNA, using T7 RNA polymerase. The probe was hybridized to cellular TN GnRH mRNA in whole, fixed 3–22 days pf of larvae. The hybridized probe was then detected with anti-DIG antibody conjugated to alkaline phosphatase (Anti-DIG-AP), and the complex (mRNA:DIG-labeled cRNA:Anti-DIG-AP) was detected by an enzymatic reaction of AP with a chromogenic substrate, which forms a precipitating dark purple pigment. The procedure was performed according to a standard published protocol for whole-mount ISH (Westerfield et al., 1995). The age of the larvae are boxed on the top left of each photograph. TN GnRH-expressing cells are indicated by an arrow.
FIGS. 3A, B and C show the effect of GABA-ergic compounds on developmental migration of TN GnRH neurons in zebrafish. […] Note the extent of neuronal migration toward the brain seen in untreated fish, as compared to treated fish. Whole-mount ISH analysis was done as described in FIG. 1. Differential interference contrasting microscopy was used to visualize TN GnRH hybridization in deep tissue layers of the nasal placode. All panels at 200×.
Zebrafish. Zebrafish larvae 5–8 days post-fertilization (dpf) and 7–10 dpf were immersed in GABA (1 mM) or Muscimol (100 micromolar). […]

Assay [5] deals with sGnRH gene expression. The assay can be described thus: sGnRH transcript levels in seabream larvae after GABA immersion, quantitative RT-PCR. Type of assay: in vivo, gilthead seabream (Sparus aurata). The settings on record: immersion in GABA 10^−7 to 10^−3 M for 18 hours, sampled 24 hours after treatment. As for the experimental part: FIGS. 2A, B and C show the effect of GABA treatment on GnRH gene expression during development. Larvae were sampled 24 hours after overnight treatment at 3 days pf ( ? ), 1 week pf ( ? ) or 2 weeks pf ( ? ) and levels of GnRH transcript were measured by quantitative RT-PCR Values on the Y axis are expressed as copy number/20 ng total RNA. Values on the X axis range from 0 to 1 mM GABA. 100 ng total RNA was isolated from tissues using a modified acid-phenol extraction method (TRI REAGENT, MRC, Inc., Cincinnati, Ohio) and reverse transcribed into cDNA using random hexamers and MMLV reverse transcriptase. PCR was performed in 96-well plates on diluted cDNA templates using SYBR® Green PCR Core Reagent (PE Applied Biosystems, Foster City, Calif.) and the relevant GnRH primers. Primers were designed to span intron/exon boundaries in order to avoid amplification of genomic DNA. Amplification reactions were carried out using the ABI Prism® 7700 Sequence Detection System (PE Applied Biosystems), which consists of a built-in thermalcycler, laser irradiation and CCD detector system, and software analysis package. For each reaction, the Prism® 7700 generated an amplification plot of fluorescence signal versus cycle number, and CT (the fractional cycle number at which fluorescence passes a baseline threshold value) was determined (Fink et al., 1998). […] Quantitation of the amount of target in each sample was accomplished by comparing CT values of unknowns to standards to determine initial copy number. […]
as §2
Seabream larvae at 3 days, 1 week and 2 weeks pf were immersed in various concentrations of GABA (10^−7 to 10^−3 M) for a period of 18 hours (200 larvae per treatment). Larvae were collected 24 hours after the treatments and transcript levels for each of the 3 GnRHs were determined using real-time, fluorescence-based quantitative RT-PCR assays.

[6] abbreviates: zebrafish larvae immersed in 1 mM GABA at 5–8 dpf and 7–10 dpf.
The mark [7] stands for this setting: zebrafish larvae immersed in 100 micromolar Muscimol at 5–8 dpf and 7–10 dpf.

With `NCCCC(=O)O` [GABA, Gamma-aminobutyric acid], in assay [1], the cGnRH-II expression result is “slight increase”. Also, in assay [2], the sbGnRH transcript levels result was “no definitive effect seen”. The gonadal development entry in assay [3] (setting [6]) is “clearly inhibited”. In assay [4] (setting [6]), the “migration of the GnRH neurons” value is “clearly inhibited”. Also, the sGnRH gene expression result in assay [5] (1-week-old seabream larvae) is listed as “dose-dependent decrease”; in assay [5] (2-week-old seabream larvae), “no effect”; in assay [5] (3-day-old seabream larvae) it was “no effect”.
Take `NCc1cc(=O)[nH]o1` [Muscimol]: the gonadal development entry in assay [3] (setting [7]) is given as “clearly inhibited”. For the same molecule, the “migration of the GnRH neurons” value in assay [4] (setting [7]) is “clearly inhibited”.
